Experimental data as given in patent US12486300B2, “Mithramycin oxime derivatives having increased selectivity and anti-cancer activity” (University of Kentucky Research Foundation, priority 2018, dated 2025).

Legend:
[1] = system: TC-32 cells (EWS-FLI1+) subcutaneously implanted; experiment: Efficacy studies in mouse xenografts (TC-32); type: in vivo, mice; conditions: for Significant? survival vs. Vehicle: overall significance level 0.05
Procedure: Efficacy studies in mouse xenografts. TC-32 cells were suspended in 1:1 (v/v) media: Matrigel on ice and injected subcutaneously into the flank of female immunocompromised athymic nude NU/NU mice at a density of 1.0×10^6 cells per 100 μL. Mice with tumors of at least 75 mm^3 were randomly assigned to treatment groups, n=8-12 mice per group and n=6-10 mice per vehicle control treated group. Tumor volumes were monitored every 2-3 days and mice were euthanized once tumor volumes reached 1500 mm^3. In some experiments, tumors were allowed to grow to 20 mm in one direction prior to animals being removed from the study. Average tumor volume among the replicates were plotted, as well as survival plots, using GraphPad Prism 7.03 software. All animal studies were conducted under approved institutional animal care and use committee (IACUC) protocol.
Reference is made to FIGS. 3A-3G, which include data from an efficacy study involving exemplary compound MTM (20). TC-32 cells (EWS-FLI1+) were subcutaneously implanted in female NU/NU mice. Gray shadding starting at 0 days. indicates dosing window. FIG. 3B includes MTM20 at 21 mg/kg, FIG. 3C includes MTM20 at 15 mg/kg, FIG. 3D includes vehicle (control), FIG. 3E includes MTM (control) at 1 mg/kg, and FIG. 3F includes MTM (contro) at 0.65 mg/kg. Dosing route: IV bolus; Schedule: q2d×8.
Reference is made to FIGS. 4A and 4B, and Table 2, which include data from an efficacy/survival study involving exemplary compound MTM(20). TC-32 cells (EWS-FLI1+) were subcutaneously implanted in female NU/NU mice. FIG. 4A includes survival curves and FIG. 4B includes median survival plots of mice (n=6-7/group).
Further Efficacy Studies. Additional efficacy studies are ongoing with MTM20 at a daily schedule (total of 5 doses).
In comparison, nine of 10 tumor volumes, in the control group have increased by 50% or more and one increased approximately 15% above baseline.
In comparison all tumors in the control group grow by 30% or more relative to baseline.

[2] = Maximum tolerated dose, daily×5 schedule; type: in vivo, mice
[3] = system: TC32 Ewing sarcoma cells, expressing EWS-FLI1; experiment: Growth inhibition assay, TC32 cells; type: cell-based; conditions: ratio of GI50 PC3 to TC32
[4] = IV bolus pharmacokinetics in monkey; type: in vivo; conditions: single monkey, IV bolus 10 mg/kg, 2-compartment modeling
Procedure: Reference is made to FIGS. 6A and 6B. MTM and exemplary compound MTM(20) were each administered as an IV bolus injection (10 mg/kg) to assess the pharmacokinetics in a single monkey. Estimation of the area under the curve (AUC) was done by 2-compartment modeling. MTM20 has ˜3-fold lower clearance (CL) than mithramycin, which corresponds to an equivalent increase in exposure as measured by the AUC.

EWS-FLI1 = biological target: T1, EWS-FLI1 (Homo sapiens, UniProt Q01543+Q01844); conditions: Grohar et al. 2011; cited from earlier work
T1 sequence (Q01543 276-373 limits assumed): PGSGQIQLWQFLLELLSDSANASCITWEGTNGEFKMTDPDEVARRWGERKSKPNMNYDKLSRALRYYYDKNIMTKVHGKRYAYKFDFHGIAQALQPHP

[5] = Hematology profile in monkeys; conditions: IV bolus 15 mg/kg
Procedure: Reference is made to FIGS. 7A-7F, which include include data for a hematology profile in monkeys. MTM and MTM20 were dosed as an IV bolus injection (10 mg/kg and 15 mg/kg) in two monkeys each to assess toxicity. […] Gray areas are reference values.

## COC(=O)C(Cc1c[nH]c2ccccc12)NC(=O)CON=C(C(O)C(C)O)C(OC)C1Cc2cc3cc(OC4CC(OC5CC(O)C(O)C(C)O5)C(O)C(C)O4)c(C)c(O)c3c(O)c2C(=O)C1OC1CC(OC2CC(OC3CC(C)(O)C(O)C(C)O3)C(O)C(C)O2)C(O)C(C)O1 (stereo not shown) [MTM (20)]
[1]; Experiment 1: 14.7 mg/kg (⅔ of MTD), daily schedule 5 doses, 2 days after end of treatment, 7 animals
  reduction in tumor volume: greater than 50%
[1]; Experiment 2: 24 mg/kg (full MTD) daily×5, following the 4th dose
  tumor volumes decreased, of the original tumor volume: 10-70%
[1]; MTM20 - 2/3MTD vs. MTM - 2/3MT
  Significant? survival: No
[1]; MTM20 - 2/3MTD vs. MTM - MTD
  Significant? survival: No
[1]; MTM20 - MTD vs. MTM20 - 2/3MTD
  Significant? survival: No
[1]; MTM20 - MTD vs. MTM - 2/3MTD
  Significant? survival: No
[1]; MTM20 - MTD vs. MTM - MTD
  Significant? survival: No
[1]; at 2/3MTD
  Significant? survival vs. Vehicle: Yes
[1]; at MTD
  Significant? survival vs. Vehicle: Yes
[1]; daily schedule (5 doses) compared to q2Dx8
  initial response with new dosing schedules: significantly improved
[1]; daily×5×2 weeks (qDx5×2w)
  predicted efficacy of standard clinical dosing regimen: notably efficacious and potentially curative
[2]
  full MTD of the daily×5 schedule: 24 mg/kg
[3]
  PC:TC32 (cellular selectivity): 24.5
[4]
  lower clearance (CL) than mithramycin: ~3 fold

## CO[C@H](C(=O)[C@@H](O)[C@@H](C)O)[C@@H]1Cc2cc3cc(O[C@H]4C[C@@H](O[C@H]5C[C@@H](O)[C@H](O)[C@@H](C)O5)[C@H](O)[C@@H](C)O4)c(C)c(O)c3c(O)c2C(=O)[C@H]1O[C@H]1C[C@@H](O[C@H]2C[C@@H](O[C@H]3C[C@](C)(O)[C@H](O)[C@@H](C)O3)[C@@H](O)[C@@H](C)O2)[C@H](O)[C@@H](C)O1 [MTM, Mithramycin]
EWS-FLI1
  potency as inhibitor of EWS-FLI1 in Ewing sarcoma cells: low-nM
[5]
  platelets counts: significant reduction in platelets counts
[1]; MTM - MTD vs. MTM - 2/3MTD
  Significant? survival: No
[1]; at 2/3MTD
  Significant? survival vs. Vehicle: No
[1]; at MTD
  Significant? survival vs. Vehicle: No
